What was measured:
[1] = target: T1, HMG-CoA reductase (Homo sapiens, UniProt P04035); assay: in vitro HMG-CoA reductase inhibitory activity; assay type: biochemical
T1 sequence (P04035 1-888): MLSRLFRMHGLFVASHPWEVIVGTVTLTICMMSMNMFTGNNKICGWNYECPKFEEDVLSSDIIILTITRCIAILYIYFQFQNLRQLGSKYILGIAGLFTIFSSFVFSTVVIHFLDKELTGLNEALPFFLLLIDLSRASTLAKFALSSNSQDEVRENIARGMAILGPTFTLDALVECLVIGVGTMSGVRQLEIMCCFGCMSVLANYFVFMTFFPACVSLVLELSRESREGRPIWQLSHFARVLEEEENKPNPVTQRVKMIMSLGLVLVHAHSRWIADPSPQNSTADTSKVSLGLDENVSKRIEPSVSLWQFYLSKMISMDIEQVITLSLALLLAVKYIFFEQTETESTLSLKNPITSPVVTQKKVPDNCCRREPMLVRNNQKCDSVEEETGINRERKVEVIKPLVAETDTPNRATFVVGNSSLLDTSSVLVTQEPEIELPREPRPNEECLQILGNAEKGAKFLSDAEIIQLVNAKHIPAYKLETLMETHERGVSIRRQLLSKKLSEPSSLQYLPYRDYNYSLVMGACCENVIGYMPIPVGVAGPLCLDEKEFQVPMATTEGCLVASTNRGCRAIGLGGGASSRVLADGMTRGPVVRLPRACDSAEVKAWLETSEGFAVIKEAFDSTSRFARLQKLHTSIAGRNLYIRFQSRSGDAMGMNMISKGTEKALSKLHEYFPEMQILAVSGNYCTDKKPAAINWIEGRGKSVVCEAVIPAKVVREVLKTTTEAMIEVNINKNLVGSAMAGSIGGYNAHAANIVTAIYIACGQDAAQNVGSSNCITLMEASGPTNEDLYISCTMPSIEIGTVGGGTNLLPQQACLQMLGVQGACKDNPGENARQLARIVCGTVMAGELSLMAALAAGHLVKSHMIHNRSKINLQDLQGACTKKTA
Method: The in vivo and in vitro biological activity of the methyl analog of simvastatin isomeric compounds of structural formulae VIIc and VIIa was carried out on a HMG-CoA reductase inhibitory model. The compounds were tested at three concentrations (10^−5, 10^−7 and 10^−9 M) for the in vitro activity.

[2] = test system: (14C) cholesterol synthesis from (14C) acetate; assay: in vivo inhibition of (14C) cholesterol prepared from 14C acetate in rats; details: for cholesterol lowering activity (in words): in vivo
Method: The in vivo experiments were conducted using radiolabelled (^14C) acetate which was administered to the rats converting it into (^14C) cholesterol. This synthesis was measured by quantitating (^14C) cholesterol inhibited by HMG-CoA reductase inhibitor.

[3] = target: T1, HMG-CoA reductase; details: cited from earlier work

Compound | % HMG-CoA reductase inhibition activity ([1]; concentration 10^-5 M) | % HMG-CoA reductase inhibition activity ([1]; concentration 10^-7 M) | % HMG-CoA reductase inhibition activity ([1]; concentration 10^-9 M) | HMG-CoA reductase inhibitory activity (in words) ([1]; tested at 10^-5, 10^-7 and 10^-9 M) | % inhibition of (14C) cholesterol prepared from 14C acetate ([2]; 1 mg/kg i.p.) | % inhibition of (14C) cholesterol prepared from 14C acetate ([2]; 1 mg/kg orally) | % inhibition of (14C) cholesterol prepared from 14C acetate ([2]; 5 mg/kg orally) | cholesterol lowering activity (in words) [2] | potency relative to mevinolin [3]
CCC(C)(C)C(=O)O[C@H]1C[C@@H](C)C=C2C=C[C@H](C)[C@H](CC[C@@H]3C[C@@H](O)[C@H](C)C(=O)O3)[C@H]21 [VIIc, 6(R)-[2-[8(S)-[[2,2-Dimethylbutanoyl]oxyl]-2(S),6(R)-dimethyl-1,2,6,7,8,8a(R)-hexahydro-1(S)-napthyl]ethyl]-3(S)-methyl,4(R)-hydroxy-3,4,5,6-tetrahydro-2H-pyran-2-one] | 99% | 71% | 8% | significant HMG-CoA reductase inhibitory activity | 8% | 0% | 57% | have cholesterol lowering activity | 
CCC(C)(C)C(=O)O[C@H]1C[C@@H](C)C=C2C=C[C@H](C)[C@H](CC[C@@H]3C[C@@H](O)[C@@H](C)C(=O)O3)[C@H]21 [VIIa, 6(R)-[2-[8(S)-[[2,2-Dimethylbutanoyl]oxyl]-2(S),6(R)-dimethyl-1,2,6,7,8,8a(R)-hexahydro-1(S)-napthyl]ethyl]-3(R)-methyl,4(R)-hydroxy-3,4,5,6-tetrahydro-2H-pyran-2-one] | 100% | 93% | 30% |  | 10% | 0% | 69% | have cholesterol lowering activity | 
CCC(C)(C)C(=O)O[C@H]1C[C@@H](C)C=C2C=C[C@H](C)[C@H](CC[C@@H]3C[C@@H](O)CC(=O)O3)[C@H]21 [simvastatin] |  |  |  |  |  |  |  |  | twice as potent as mevinolin
